Assay results: PMC10828444, “Selective inhibition of overactive warmth-sensitive Ca^2+-permeable TRPV3 channels by antispasmodic agent flopropione for alleviation of skin inflammation” (The Journal of Biological Chemistry, 2023)

How the values were obtained:
Type in all cases: cell-based
[1] = molecular target: T1, hTRPV3 single channel (Homo sapiens, UniProt Q8NET8); experiment: Inside-out single-channel recordings of TRPV3 in HEK293 cells; conditions: 50 μM flopropione in presence of 30 μM 2-APB, −60 mV
T1 construct: expressed in transfected cells; host or cells: HEK293
T1 sequence (Q8NET8 1-790): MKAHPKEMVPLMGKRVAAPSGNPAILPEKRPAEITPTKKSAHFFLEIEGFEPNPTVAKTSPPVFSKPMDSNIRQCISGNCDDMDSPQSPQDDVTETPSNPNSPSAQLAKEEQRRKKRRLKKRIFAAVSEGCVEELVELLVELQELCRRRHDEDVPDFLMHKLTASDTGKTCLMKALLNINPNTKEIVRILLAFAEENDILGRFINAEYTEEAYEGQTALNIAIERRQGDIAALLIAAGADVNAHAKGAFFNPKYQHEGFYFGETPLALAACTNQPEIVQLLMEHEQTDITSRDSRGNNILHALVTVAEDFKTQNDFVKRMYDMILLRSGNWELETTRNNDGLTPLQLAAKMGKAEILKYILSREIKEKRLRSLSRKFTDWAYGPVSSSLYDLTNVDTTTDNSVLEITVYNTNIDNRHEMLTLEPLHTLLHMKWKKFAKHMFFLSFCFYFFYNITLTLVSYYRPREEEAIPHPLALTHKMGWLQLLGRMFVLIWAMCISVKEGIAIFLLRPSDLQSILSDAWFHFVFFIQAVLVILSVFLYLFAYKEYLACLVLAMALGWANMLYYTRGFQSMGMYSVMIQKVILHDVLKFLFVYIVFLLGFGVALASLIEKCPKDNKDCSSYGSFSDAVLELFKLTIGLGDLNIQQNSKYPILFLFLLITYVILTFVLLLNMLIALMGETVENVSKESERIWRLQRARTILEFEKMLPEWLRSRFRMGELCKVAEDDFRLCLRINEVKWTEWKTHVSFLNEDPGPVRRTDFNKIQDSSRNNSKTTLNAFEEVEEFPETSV
Text: For single-channel recordings, borosilicate glass pipettes were pulled from borosilicate glass capillaries and fire-polished to the resistance between 6 and 10 MΩ using a DMZ universal electrode puller (Zeitz-Instruments, GmbH). For inside-out single-channel recordings, both pipette and external solutions contained (in mM): 130 NaCl, three HEPES, and 0.2 EDTA (pH = 7.4). Membrane potential was clamped at −60 mV and currents were digitized at 10 kHz and filtered at 2 kHz.

[2] = molecular target: T2, hTRPV3 channels (Homo sapiens, UniProt Q8NET8); experiment: Whole-cell patch-clamp of hTRPV3 currents activated by 2-APB in HEK293 cells
T2 construct: expressed in transfected cells; host or cells: HEK293
T2 sequence (Q8NET8 1-790): T1 sequence (Q8NET8 1-790)
Method: (§1) HEK293 cells were cultured in Dulbecco’s modified Eagle’s medium (DMEM, Gibco) containing 4.5 g/L D-glucose supplemented with 10% fetal bovine serum based at 37 °C with 5% CO2. For whole-cell patch-clamp recordings, cells were grown in glass coverslips for 24 h before transient transfections with 3000 ng cDNAs of hTRPV3 (gene accession number BC104866.1), hTRPV1 (accession number NM_080704.3), mTRPV2 (accession number NM_011706.2), hTRPV4 (accession number NM_021625.5), hTRPA1 (accession number NM_007332.3) and hTRPM8 (accession number NM_024080.5) into HEK293 cells grown in a 35-mm cell culture dish using Lipofectamine 2000 (Invitrogen). Cells were used 18 ∼ 24 h after transfection. All WT or mutant hTRPV3 plasmids were validated by DNA sequencing.
(§2) Whole-cell patch clamp recordings of wild-type and mutants were carried out at room temperature using the HEKA EPC10 amplifier powered by PatchMaster software (HEKA) or MultiClamp 700B amplifier driven by Clampex 11.0.3 software. The borosilicate glass pipettes were pulled and fire-polished to 3∼6 MΩ using a DMZ universal electrode puller (Zeitz-Instruments, GmbH). Pipette solution and bath solution both contained (in mM): 130 NaCl, three HEPES, and 0.2 EDTA (pH = 7.4). Cell membrane potential was held at 0 mV, currents were recorded at a voltage ramp from −100 to +100 mV for 500-ms and analyzed at ±80 mV.

[3] = molecular target: T3, hTRPA1 (Homo sapiens, UniProt O75762); experiment: Whole-cell patch-clamp of TRPA1 currents activated by AITC in HEK293 cells; conditions: flopropione 100 μM, AITC 300 μM
T3 construct: expressed in transfected cells; host or cells: HEK293
T3 sequence (O75762 whole entry): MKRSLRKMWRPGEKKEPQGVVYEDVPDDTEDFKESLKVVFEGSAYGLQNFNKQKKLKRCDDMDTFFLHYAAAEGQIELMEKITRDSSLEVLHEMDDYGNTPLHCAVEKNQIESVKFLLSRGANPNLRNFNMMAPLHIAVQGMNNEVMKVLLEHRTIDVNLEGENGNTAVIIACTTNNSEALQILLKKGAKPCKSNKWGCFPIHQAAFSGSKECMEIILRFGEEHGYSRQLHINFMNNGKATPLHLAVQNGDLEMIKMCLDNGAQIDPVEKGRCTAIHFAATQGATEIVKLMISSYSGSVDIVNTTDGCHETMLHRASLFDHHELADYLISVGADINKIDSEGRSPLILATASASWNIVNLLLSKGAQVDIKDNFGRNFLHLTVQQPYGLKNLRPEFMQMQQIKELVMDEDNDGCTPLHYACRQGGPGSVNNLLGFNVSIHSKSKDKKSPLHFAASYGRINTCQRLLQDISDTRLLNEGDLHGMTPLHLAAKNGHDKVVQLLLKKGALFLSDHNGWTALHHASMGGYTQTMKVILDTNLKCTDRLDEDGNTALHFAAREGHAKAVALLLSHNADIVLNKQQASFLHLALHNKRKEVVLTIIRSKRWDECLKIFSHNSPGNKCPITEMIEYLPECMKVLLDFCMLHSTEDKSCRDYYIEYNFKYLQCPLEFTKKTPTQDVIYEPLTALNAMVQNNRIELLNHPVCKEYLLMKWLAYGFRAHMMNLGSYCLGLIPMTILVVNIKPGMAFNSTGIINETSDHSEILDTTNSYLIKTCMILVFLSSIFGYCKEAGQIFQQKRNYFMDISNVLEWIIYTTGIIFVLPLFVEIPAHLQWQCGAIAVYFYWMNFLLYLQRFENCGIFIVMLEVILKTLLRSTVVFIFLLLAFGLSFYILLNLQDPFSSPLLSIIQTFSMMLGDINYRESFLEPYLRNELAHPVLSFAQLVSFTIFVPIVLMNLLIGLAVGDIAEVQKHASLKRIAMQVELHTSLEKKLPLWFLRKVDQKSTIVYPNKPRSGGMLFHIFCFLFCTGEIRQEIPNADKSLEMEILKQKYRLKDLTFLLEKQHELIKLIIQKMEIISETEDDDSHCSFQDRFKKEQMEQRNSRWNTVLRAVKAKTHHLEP
Method: as §1, §2

[4] = molecular target: T4, mTRPV2 (Mus musculus, UniProt Q9WTR1); experiment: Whole-cell patch-clamp of TRPV2 currents activated by 2-APB in HEK293 cells; conditions: flopropione 100 μM, 2-APB 2 mM
T4 construct: expressed in transfected cells; host or cells: HEK293
T4 sequence (Q9WTR1 1-756): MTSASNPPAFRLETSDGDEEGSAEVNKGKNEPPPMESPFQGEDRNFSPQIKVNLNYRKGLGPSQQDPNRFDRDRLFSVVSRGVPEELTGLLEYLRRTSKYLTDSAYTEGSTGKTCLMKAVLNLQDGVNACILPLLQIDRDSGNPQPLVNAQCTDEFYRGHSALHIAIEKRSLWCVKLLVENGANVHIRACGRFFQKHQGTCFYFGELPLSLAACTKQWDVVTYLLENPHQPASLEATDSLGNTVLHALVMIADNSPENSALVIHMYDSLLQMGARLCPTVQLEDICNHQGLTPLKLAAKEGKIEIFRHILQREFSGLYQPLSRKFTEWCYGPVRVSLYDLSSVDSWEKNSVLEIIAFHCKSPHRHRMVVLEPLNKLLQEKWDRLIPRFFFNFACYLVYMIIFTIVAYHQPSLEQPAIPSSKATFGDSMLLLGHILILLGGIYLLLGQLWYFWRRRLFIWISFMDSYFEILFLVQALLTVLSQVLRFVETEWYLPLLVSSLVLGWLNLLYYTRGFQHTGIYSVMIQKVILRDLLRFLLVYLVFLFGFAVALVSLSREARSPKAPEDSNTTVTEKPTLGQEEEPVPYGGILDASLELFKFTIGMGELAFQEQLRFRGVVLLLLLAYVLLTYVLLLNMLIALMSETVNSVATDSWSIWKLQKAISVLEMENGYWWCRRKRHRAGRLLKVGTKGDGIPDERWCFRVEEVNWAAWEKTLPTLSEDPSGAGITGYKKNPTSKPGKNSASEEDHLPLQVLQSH
Method: as §1, §2

unitary single channel conductance [1]: 167.1 ± 9.0 pS | single-channel open probability ([1]; n = 4): 0.17 ± 0.06 | inhibition at 100 µM ([2]; HEK293, flopropione 100 μmol/L, agonist 2-APB 50 μmol/L, read-out: inhibition of TRPV3 currents): ~84% | IC50 ([2]; whole-cell, HEK293, 50 μM 2-APB activation, n = 5, mean ± SD, read-out: IC50 of dose-dependent inhibition of TRPV3 currents): 17.8 ± 3.5 µM | effect on TRPA1 currents [3]: no effect | inhibition at 100 µM [4]: ~60%
SMILES: CCC(=O)c1c(O)cc(O)cc1O [flopropione]
